Read-outs that look alike come from different tables or passages of the source.
Experiments:
human CYP2C9 [1] = target: T1, human CYP2C9 (Homo sapiens, UniProt P11712); settings: human
CYP3A4 [2] = target: T2, CYP3A4 (Homo sapiens, UniProt P08684)
CYP3A4 [3] = target: T2, CYP3A4; test: biochemical; settings: CYP3A4 IC50 (half-maximal inhibitory concentration)
human CYP2C9 [4] = target: T1, human CYP2C9; test: biochemical
[5] = target: Photinus pyralis (firefly) luciferase (Photinus pyralis, UniProt P08659); test: biochemical; type: biochemical
Sequence of Photinus pyralis (firefly) luciferase (P08659 whole entry): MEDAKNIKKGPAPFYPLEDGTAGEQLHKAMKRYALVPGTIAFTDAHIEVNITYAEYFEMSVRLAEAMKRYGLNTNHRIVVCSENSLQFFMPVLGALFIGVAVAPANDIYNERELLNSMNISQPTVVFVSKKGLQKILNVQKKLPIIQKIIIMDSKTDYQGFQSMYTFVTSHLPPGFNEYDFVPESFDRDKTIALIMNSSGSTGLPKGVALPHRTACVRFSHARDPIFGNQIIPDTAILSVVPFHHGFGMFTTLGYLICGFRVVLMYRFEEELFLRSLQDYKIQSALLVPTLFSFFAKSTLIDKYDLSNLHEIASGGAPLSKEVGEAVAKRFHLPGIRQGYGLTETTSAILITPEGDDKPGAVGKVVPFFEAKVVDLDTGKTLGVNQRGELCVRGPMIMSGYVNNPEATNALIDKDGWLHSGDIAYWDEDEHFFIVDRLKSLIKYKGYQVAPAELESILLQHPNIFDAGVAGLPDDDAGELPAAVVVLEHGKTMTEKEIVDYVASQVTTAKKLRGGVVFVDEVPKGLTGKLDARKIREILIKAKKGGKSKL

human CYP2D6 [6] = target: T3, human CYP2D6 (Homo sapiens, UniProt P10635); settings: human
T3 sequence (P10635 whole entry): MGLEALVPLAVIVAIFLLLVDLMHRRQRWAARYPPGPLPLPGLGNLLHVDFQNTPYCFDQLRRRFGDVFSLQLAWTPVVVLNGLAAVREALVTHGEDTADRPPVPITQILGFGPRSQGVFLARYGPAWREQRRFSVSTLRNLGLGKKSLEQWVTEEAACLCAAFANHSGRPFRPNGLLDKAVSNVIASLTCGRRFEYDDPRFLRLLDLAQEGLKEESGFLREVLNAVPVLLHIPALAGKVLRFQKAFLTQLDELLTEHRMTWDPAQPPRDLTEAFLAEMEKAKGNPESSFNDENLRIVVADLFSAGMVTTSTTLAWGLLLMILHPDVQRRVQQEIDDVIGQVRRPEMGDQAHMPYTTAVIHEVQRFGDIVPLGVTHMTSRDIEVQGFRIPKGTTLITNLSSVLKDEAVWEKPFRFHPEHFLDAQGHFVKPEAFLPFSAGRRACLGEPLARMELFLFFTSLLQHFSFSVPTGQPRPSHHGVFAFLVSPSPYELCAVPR

human CYP1A2 [7] = target: T4, human CYP1A2 (Homo sapiens, UniProt P05177); settings: human
T4 sequence (P05177 1-516): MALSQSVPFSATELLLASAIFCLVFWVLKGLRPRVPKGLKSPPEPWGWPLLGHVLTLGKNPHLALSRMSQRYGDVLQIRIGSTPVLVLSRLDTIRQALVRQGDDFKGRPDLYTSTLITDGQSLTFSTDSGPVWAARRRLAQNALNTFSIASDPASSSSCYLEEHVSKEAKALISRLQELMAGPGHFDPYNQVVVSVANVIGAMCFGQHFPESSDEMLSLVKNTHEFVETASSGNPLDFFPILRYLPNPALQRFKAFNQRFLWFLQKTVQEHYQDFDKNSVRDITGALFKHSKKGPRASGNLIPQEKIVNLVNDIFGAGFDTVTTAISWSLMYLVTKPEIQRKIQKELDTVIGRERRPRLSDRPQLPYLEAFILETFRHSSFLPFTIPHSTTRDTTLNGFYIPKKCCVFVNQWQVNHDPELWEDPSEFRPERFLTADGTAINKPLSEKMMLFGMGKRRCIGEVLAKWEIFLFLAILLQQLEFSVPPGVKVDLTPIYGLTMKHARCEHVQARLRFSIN

human CYP2C19 [8] = target: T5, human CYP2C19 (Homo sapiens, UniProt P33261); test: biochemical; settings: CYP2C19 IC50 (half-maximal inhibitory concentration)
T5 sequence (P33261 whole entry): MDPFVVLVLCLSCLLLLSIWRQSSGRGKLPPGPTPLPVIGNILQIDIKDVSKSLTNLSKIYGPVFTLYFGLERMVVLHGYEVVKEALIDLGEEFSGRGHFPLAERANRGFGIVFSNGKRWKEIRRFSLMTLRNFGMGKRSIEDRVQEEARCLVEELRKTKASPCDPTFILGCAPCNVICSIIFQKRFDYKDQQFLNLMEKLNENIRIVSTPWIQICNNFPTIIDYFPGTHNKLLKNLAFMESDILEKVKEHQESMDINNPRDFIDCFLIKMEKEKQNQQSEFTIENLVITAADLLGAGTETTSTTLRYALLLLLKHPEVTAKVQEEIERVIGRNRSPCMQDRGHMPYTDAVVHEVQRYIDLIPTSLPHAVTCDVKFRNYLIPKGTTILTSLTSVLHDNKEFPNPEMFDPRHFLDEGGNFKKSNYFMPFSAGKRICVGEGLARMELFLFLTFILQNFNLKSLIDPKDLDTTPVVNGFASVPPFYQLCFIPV

human CYP2C19 [9] = target: T5, human CYP2C19; settings: human
human CYP1A2 [10] = target: T4, human CYP1A2; test: biochemical; settings: CYP1A2 IC50 (half-maximal inhibitory concentration)
human CYP2D6 [11] = target: T3, human CYP2D6; test: biochemical
[12] = CYP2C9 IC50 (half-maximal inhibitory concentration)
[13] = CYP2D6 IC50 (half-maximal inhibitory concentration)

T2 sequence (P08684 whole entry): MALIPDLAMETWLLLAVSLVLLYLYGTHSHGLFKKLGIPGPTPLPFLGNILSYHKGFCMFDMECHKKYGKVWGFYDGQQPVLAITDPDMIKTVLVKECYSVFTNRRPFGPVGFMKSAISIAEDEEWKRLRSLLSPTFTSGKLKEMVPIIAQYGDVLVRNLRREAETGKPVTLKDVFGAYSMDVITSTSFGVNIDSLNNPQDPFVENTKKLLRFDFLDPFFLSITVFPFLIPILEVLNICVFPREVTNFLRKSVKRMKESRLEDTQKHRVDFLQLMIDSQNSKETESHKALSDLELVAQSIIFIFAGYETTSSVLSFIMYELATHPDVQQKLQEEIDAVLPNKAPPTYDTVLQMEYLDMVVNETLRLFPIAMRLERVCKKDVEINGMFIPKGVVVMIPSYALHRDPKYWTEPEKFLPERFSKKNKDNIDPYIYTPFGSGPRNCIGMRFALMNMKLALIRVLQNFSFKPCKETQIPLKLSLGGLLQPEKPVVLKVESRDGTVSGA
T1 sequence (P11712 whole entry): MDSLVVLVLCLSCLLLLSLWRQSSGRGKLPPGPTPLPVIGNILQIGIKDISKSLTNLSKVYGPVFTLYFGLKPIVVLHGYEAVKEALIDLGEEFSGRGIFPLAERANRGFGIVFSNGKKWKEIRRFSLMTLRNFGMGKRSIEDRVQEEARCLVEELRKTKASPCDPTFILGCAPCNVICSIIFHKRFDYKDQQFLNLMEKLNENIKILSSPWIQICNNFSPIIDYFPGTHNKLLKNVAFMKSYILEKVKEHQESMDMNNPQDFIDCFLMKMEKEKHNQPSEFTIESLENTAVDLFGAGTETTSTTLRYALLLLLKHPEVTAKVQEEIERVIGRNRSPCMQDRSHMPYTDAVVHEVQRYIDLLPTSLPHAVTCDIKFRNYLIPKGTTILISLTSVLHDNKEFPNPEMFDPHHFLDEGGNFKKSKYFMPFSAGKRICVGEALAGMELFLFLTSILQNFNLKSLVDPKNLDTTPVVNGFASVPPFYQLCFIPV

SMILES	CYP2C9 Efficacy (in parenthesis) (human CYP2C9 [1])	CYP3A4 Efficacy (in parenthesis) (CYP3A4 [2])	IC50 (CYP3A4 [3])	IC50 (human CYP2C9 [4])	Luciferase IC50 (half-maximal inhibitory concentration) [5]	CYP2D6 Efficacy (in parenthesis) (human CYP2D6 [6])	CYP1A2 Efficacy (in parenthesis) (human CYP1A2 [7])	IC50 (human CYP2C19 [8])	CYP2C19 Efficacy (in parenthesis) (human CYP2C19 [9])	IC50 (human CYP1A2 [10])	IC50 (human CYP2D6 [11])	IC50 (human CYP2C9 [4]; [12])	IC50 (human CYP2D6 [11]; [13])
COP(=S)(OC)Oc1ccc(S(=O)(=O)N(C)C)cc1 [Famphur]	0.4 ± 0.05 (-109 ± 5) %	9.06 ± 1.9 (-86 ± 7) %	9.06 µM	0.4 µM	Inactive	35.57 ± 0 (-59 ± 2) %	35.73 ± 4.11 (-67 ± 14) %	0.09 µM	0.09 ± 0.01 (-137 ± 1) %	35.7 µM	35.6 µM	–	–
CC(C)C1CCC(Cc2ccc(Cl)cc2)C1(O)Cn1cncn1 (centres unmarked) [Ipconazole]	0.79 ± 0.09 (-94 ± 4) %	0.05 ± 0.01 (-89 ± 5) %	0.05 µM	–	Inactive	22.34 ± 2.57 (-107 ± 15) %	35.41 ± 4.07 (-90 ± 1) %	0.27 µM	0.27 ± 0.07 (-168 ± 31) %	35.4 µM	–	0.79 µM	22.3 µM
COP(=S)(Oc1cc(Cl)c(Br)cc1Cl)c1ccccc1 (centres unmarked) [Leptophos]	0.98 ± 0.25 (-107 ± 5) %	7.39 ± 0.5 (-65 ± 15) %	7.39 µM	0.98 µM	Inactive	89.36 ± 0 (-42 ± 11) %	21.38 ± 6.3 (-109 ± 13) %	0.27 µM	0.27 ± 0.05 (-122 ± 2) %	21.4 µM	89.4 µM	–	–
CCCCC(C#N)(Cn1cncn1)c1ccc(Cl)cc1 (centres unmarked) [Myclobutanil]	25.18 ± 0 (-109 ± 4) %	0.17 ± 0.05 (-75 ± 2) %	0.17 µM	–	Inactive	49.32 ± 12.32 (-38 ± 7) %	33.28 ± 11.5 (-34 ± 3) %	0.66 µM	0.66 ± 0.12 (-168 ± 41) %	33.3 µM	–	25.2 µM	49.3 µM
OC(c1ccc(F)cc1)(c1cncnc1)c1ccccc1Cl (centres unmarked) [Nuarimol]	23.57 ± 4.24 (-118 ± 8) %	0.31 ± 0.08 (-68 ± 6) %	0.31 µM	–	Inactive	35.73 ± 4.11 (-53 ± 5) %	49.42 ± 19.58 (-46 ± 6) %	2.7 µM	2.7 ± 1.21 (-141 ± 5) %	49.4 µM	–	23.6 µM	35.7 µM
CCOP(=S)(OCC)Oc1ccc([N+](=O)[O-])cc1 [Parathion]	1.62 ± 0.19 (-99 ± 2) %	3.18 ± 0.89 (-79 ± 1) %	3.18 µM	1.62 µM	Inactive	32.26 ± 3.71 (-69 ± 3) %	0.99 ± 0.17 (-96 ± 2) %	0.17 µM	0.17 ± 0.04 (-144 ± 4) %	0.99 µM	32.3 µM	–	–
C=CC(=O)OCC(CO)(COC(=O)C=C)COC(=O)C=C [Pentaerythritol triacrylate]	13.25 ± 1.87 (-108 ± 2) %	0.93 ± 0.39 (-89 ± 6) %	0.93 µM	–	Inactive	63.77 ± 20.97 (-79 ± 21) %	71.58 ± 8.23 (-54 ± 11) %	22.6 µM	22.64 ± 2.6 (-137 ± 14) %	71.6 µM	–	13.2 µM	63.8 µM

Source: article PMC12155096 (International Journal of Molecular Sciences, 2025)
